Values joined by “and” are separate entries in the source; they are usually repeats but may differ in a detail not shown here. Equal entries are not always repeated.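 Briefly, cells in 96-well plates were exposed to five compound concentrations for 48 h, and endpoints were estimated by linear interpolation. At the GI50, growth is halved. TGI denotes the concentration required for complete inhibition of growth.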 Where only a bound is given, the exact number is not on record here.

This note sets out measurements from PubChem BioAssay (NCI).

Common to all, as to experiment: NCI anticancer screen, dose series, 48 h
Experiment [1] has as its system BT-549 breast.
The subject of experiment [2] is HCT-116 colon.
Experiment [3] deals with KM12 colon.
For experiment [4], the system named is LOX IMVI melanoma.
Experiment [5] has as its system NCI-H23 lung.
For experiment [6], the system named is OVCAR-3 ovarian.
The test system of experiment [7] is PC-3 prostate.
For experiment [8], the system named is SK-MEL-5 melanoma.
Experiment [9] concerns SNB-19 CNS.
Experiment [10] deals with TK-10 renal.

As for `CC1SC(c2cccc(Cl)c2)N(NC(=O)C(O)c2ccccc2)C1=O` (stereo unspecified), the GI50 in experiment [1], in experiment [2], in [3], in experiment [4], in [5] and in experiment [6] was more than 100 µM throughout. The GI50 in experiment [7], in experiment [8], in experiment [9] and in [10] was more than 100 µM each time. Further, the TGI in experiment [1], in experiment [2], in [3], in experiment [4], in [5] and in experiment [6] was more than 100 µM throughout. The TGI in experiment [7], in experiment [8], in [9] and in [10] was more than 100 µM each time.

Take `COc1cc2c3c(n(CCCN4CCN(CCO)CC4)c(=O)c2cc1OC)-c1cc2c(cc1C3=O)OCO2`: the GI50 in [1] is 2.35 µM; in [2] it was 1.14 µM; in [3], 9.33 µM; in [4], 3.72 µM; in experiment [5], 4.77 µM; in experiment [6], 13.2 µM. For the same compound, the GI50 is 13.2 µM in [7], 13 µM in experiment [8], 14.3 µM in [9] and 15.5 µM in experiment [10]. Also, the TGI in [1] was found to be 12.3 µM; in [2], 7.79 µM; in experiment [3], 22.7 µM; in experiment [4], 8.77 µM; in experiment [5], 16.5 µM; in experiment [6], 28.3 µM. The TGI in experiment [7] was 35.4 µM; in [8], 26 µM; in experiment [9] it was more than 65.7 µM; in experiment [10], 37 µM.

Regarding `CCC(=O)OCN1C(=O)C=CC1=O`, the TGI in experiment [1] is 33.3 µM and 34.4 µM; in experiment [2], 25.8 µM and 29.9 µM; in [3], 35.1 µM and 30.8 µM; in experiment [4] it was 34.3 µM and 35.1 µM; in experiment [5], 39.6 µM and 34.7 µM; in experiment [6], 25.7 µM and 18.6 µM. For the same compound, the TGI in experiment [7] is 33.1 µM and 30.9 µM; in [8] it was 42.5 µM and > 58.1 µM; in experiment [9] it was > 100 µM and 32.5 µM; in experiment [10] it was 29.3 µM and 18.4 µM. Further, the GI50 in experiment [2] was 11.8 µM; in experiment [3], 19.3 µM; in experiment [5] it was 20.1 µM; in [6], 12.9 µM; in experiment [8], 18.9 µM; in experiment [9] it was more than 100 µM. Also, in experiment [10], the GI50 is 15.6 µM.

Regarding `CCCC(CCC)C(=O)O`, the GI50 in [1] is more than 100 µM; in experiment [2], more than 100 µM; in [3] it was more than 100 µM; in [4], more than 100 µM; in [5], more than 20000 µM; in [6], more than 100 µM. Moreover, the values for the GI50 in experiment [7], in experiment [9] and in [10] were more than 100 µM, more than 20000 µM and more than 100 µM, respectively. The TGI in [1], in [2], in experiment [3], in experiment [4], in [5] and in [6] was more than 20000 µM throughout. For the same compound, the TGI in experiment [7] was more than 20000 µM; in experiment [8], 9570 µM; in [9], more than 20000 µM; in experiment [10], more than 20000 µM.

In the case of `CC1(C)N=C(N)N=C(N)N1c1ccc(CCC(=O)Nc2cccc(S(=O)(=O)F)c2)cc1`, the GI50 was 7.21 µM in [1]; 3.96 µM in experiment [2]; 10.6 µM in experiment [3]; 3.54 µM in experiment [4]; 7.78 µM in experiment [5]; 54.1 µM in experiment [6]. Moreover, the GI50 in experiment [7] is 0.597 µM; in [8], 4.83 µM; in experiment [9], 7.37 µM; in experiment [10] it was 5.57 µM. Moreover, the TGI in experiment [1], in experiment [2], in [3], in experiment [4], in experiment [5] and in experiment [6] was more than 100 µM throughout. Also, the TGI in [7], in [8], in experiment [9] and in [10] was more than 100 µM throughout.

Consider `N#CC(CC(=O)O)=C(c1ccccc1)c1ccccc1`, for which the TGI in experiment [1], in experiment [2], in [3], in experiment [4], in experiment [5] and in experiment [6] was more than 100 µM in each case. The TGI in experiment [7], in [8], in [9] and in experiment [10] was more than 100 µM in each case.

On to `CC(C)Cn1cnc2c(SCc3ccccn3)nc(N)nc21`, for which the TGI in experiment [1], in experiment [2], in experiment [3], in experiment [4], in experiment [5] and in [6] was more than 100 µM throughout. The TGI in [7], in experiment [8], in [9] and in experiment [10] was more than 100 µM each time.

Consider `CN1CCN(Cc2ccc(NC(=O)c3cncc(C#Cc4ncc5ccccn45)c3)cc2C(F)(F)F)CC1`, for which the GI50 in experiment [1] was 1.98 µM; in experiment [2], 0.674 µM; in [3] it was 0.0112 µM; in experiment [4], 1.27 µM; in [5] it was 1.34 µM; in [6], 2.43 µM. The GI50 in [7] was 1.27 µM; in experiment [8], 3.13 µM; in [9] it was 3.09 µM; in [10] it was 3.43 µM. Besides, the TGI turned out to be 5.03 µM in experiment [1]; 3.06 µM in [2]; 2.9 µM in [3]; 4.55 µM in experiment [4]; 5.75 µM in experiment [5]; 8.21 µM in experiment [6]. Further, the TGI in [7] came out at 8.65 µM; in experiment [8] it was 6.37 µM; in experiment [9], 8.44 µM; in [10], 8.21 µM.
